Laboratory results from paper PMC6175931, “Structural insights into the electron/proton transfer pathways in the quinol:fumarate reductase from Desulfovibrio gigas” (Scientific Reports, 2018).

Molecular target: T1, quinol:fumarate reductase (QFR), site in subunit A (FAD-binding protein) (Megalodesulfovibrio gigas, UniProt T2GB49)
T1 construct: gene fdrA; native, purified from D. gigas membranes in DDM; A2B2C2 homo-dimer; subunit A 627 residues (1-622 built), B 264, C 218; with Fumarate reductase iron-sulfur subunit; Fumarate reductase cytochrome b subunit
T1 sequence (T2GB49 1-627): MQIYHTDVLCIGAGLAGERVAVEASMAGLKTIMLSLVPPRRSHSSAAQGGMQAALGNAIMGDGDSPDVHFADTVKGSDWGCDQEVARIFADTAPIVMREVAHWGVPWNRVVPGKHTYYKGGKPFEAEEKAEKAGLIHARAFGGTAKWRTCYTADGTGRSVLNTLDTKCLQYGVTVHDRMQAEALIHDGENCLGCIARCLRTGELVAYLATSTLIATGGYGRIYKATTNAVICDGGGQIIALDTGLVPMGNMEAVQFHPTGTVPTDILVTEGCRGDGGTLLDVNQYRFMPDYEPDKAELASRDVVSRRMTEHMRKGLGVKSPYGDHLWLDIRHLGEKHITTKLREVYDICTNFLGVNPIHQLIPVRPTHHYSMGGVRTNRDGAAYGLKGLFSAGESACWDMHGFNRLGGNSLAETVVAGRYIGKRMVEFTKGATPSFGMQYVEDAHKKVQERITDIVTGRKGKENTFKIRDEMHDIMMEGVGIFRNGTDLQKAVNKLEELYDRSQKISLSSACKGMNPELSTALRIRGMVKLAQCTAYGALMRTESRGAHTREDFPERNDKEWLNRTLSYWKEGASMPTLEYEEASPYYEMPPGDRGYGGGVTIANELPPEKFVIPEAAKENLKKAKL
T1 sequence (T2G9X8 1-264 partner): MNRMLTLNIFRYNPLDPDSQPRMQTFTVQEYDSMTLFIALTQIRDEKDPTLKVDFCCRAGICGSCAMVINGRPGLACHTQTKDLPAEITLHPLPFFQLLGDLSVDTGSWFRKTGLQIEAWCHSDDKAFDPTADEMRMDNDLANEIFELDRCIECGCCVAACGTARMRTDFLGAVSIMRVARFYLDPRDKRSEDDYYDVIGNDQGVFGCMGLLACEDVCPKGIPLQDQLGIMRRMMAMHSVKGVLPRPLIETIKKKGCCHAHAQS
T1 sequence (T2GAT5 1-218 partner): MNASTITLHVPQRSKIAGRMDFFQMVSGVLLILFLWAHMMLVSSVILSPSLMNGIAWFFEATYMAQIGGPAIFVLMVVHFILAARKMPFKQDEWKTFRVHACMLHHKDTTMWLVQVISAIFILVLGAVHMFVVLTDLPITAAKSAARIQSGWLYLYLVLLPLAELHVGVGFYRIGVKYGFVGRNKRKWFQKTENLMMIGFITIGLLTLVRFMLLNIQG
Assay: X-ray crystal structure, […] Å
Details: crystals at pH 8.5

Structure (SMILES) | X-ray crystal structure, 3.6 Å (covalent, C8M methyl of flavin to His-A43) | X-ray crystal structure, 3.6 Å (fumarate site near the FAD in subunit A)
Cc1cc2nc3c(=O)[nH]c(=O)nc-3n(C[C@H](O)[C@H](O)[C@H](O)COP(=O)(O)OP(=O)(O)OC[C@H]3O[C@@H](n4cnc5c(N)ncnc54)[C@H](O)[C@@H]3O)c2cc1C [FAD, flavin adenine dinucleotide] | FAD binds to the FAD-binding domain through a covalent bond with residue His-A43 | –
O=C(O)/C=C/C(=O)O [fumarate] | – | A fumarate molecule is also observed near the FAD in the A subunit
